Results on seven compounds are retold here after PubChem BioAssay (NCI).

Test systems include RPMI-8226 leukemia; SK-MEL-5 melanoma; NCI-H23 lung; T-47D breast; A549 NSCLC; HOP-92 NSCLC; HCC-2998 colon; UACC-257 melanoma; HOP-62 NSCLC; ACHN renal.
Common to all, as to assay: NCI tumour cell line growth inhibition, 48 h

Where “and” joins values, the source holds several entries; their conditions need not be identical. Equal entries are not always repeated.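 These data come from cells grown in 96-well plates and exposed to compound for 48 hours at five concentrations. GI50 = concentration required for 50% inhibition of growth. TGI: concentration producing complete growth inhibition.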 Where only a bound is given, the exact number is not on record here.

For `CCN1CCN(Cc2ccc(-c3cc4c(N[C@H](C)c5ccccc5)ncnc4[nH]3)cc2)CC1`, the GI50 is 3.54 µM and 2.13 µM with RPMI-8226 leukemia; 1.76 µM and 1.72 µM with SK-MEL-5 melanoma; 7.39 µM and > 10 µM in the experiment on NCI-H23 lung; 1.36 µM and 0.765 µM in the experiment with T-47D breast; 1.71 µM and 3.08 µM with A549 NSCLC; 0.167 µM and 0.523 µM with HOP-92 NSCLC. The GI50 in the experiment with HCC-2998 colon is 7.63 µM and > 10 µM; with UACC-257 melanoma, 1.76 µM and 1.83 µM; in the experiment with HOP-62 NSCLC it was 3.52 µM and 3.53 µM; in the experiment with ACHN renal it was 0.0625 µM and 0.162 µM. Moreover, the TGI was 13.4 µM and 6.94 µM with RPMI-8226 leukemia; 3.68 µM and 3.88 µM with SK-MEL-5 melanoma; 33.3 µM and > 10 µM with NCI-H23 lung; 19.2 µM and > 10 µM with T-47D breast; 13.1 µM and > 10 µM in the experiment on A549 NSCLC; 4.21 µM and > 10 µM with HOP-92 NSCLC. Also, the TGI in the experiment with HCC-2998 colon was 22.3 µM and > 10 µM; with UACC-257 melanoma, 3.38 µM and 3.41 µM; with HOP-62 NSCLC, 18.3 µM and > 10 µM; in the experiment with ACHN renal, 12.5 µM and > 10 µM.

In the case of `C[C@@H]1COCCN1c1cc(C2([S@](C)(=N)=O)CC2)nc(-c2ccnc3[nH]ccc23)n1`, the GI50 with RPMI-8226 leukemia was 3.96 µM and 6.76 µM; with SK-MEL-5 melanoma, 3.6 µM and 3.87 µM; with NCI-H23 lung, 1.74 µM and 1.7 µM; in the experiment on T-47D breast, 3.96 µM and 7.78 µM; in the experiment with A549 NSCLC, 3.46 µM and 4.02 µM; in the experiment with HOP-92 NSCLC, 1.34 µM and 1.14 µM. Also, the GI50 with HCC-2998 colon is 2.56 µM and 4.97 µM; in the experiment on UACC-257 melanoma it was 14 µM and > 10 µM; in the experiment with HOP-62 NSCLC it was 2.86 µM and 1.75 µM; in the experiment with ACHN renal, 0.818 µM and 1.65 µM. In addition, the TGI was 47.5 µM and > 10 µM with RPMI-8226 leukemia; 15.7 µM and > 10 µM with SK-MEL-5 melanoma; 34.3 µM and > 10 µM in the experiment on NCI-H23 lung; 35.8 µM and > 10 µM with T-47D breast; above 100 µM in the experiment with A549 NSCLC; 14 µM and 8.77 µM in the experiment on HOP-92 NSCLC. Further, the TGI in the experiment on HCC-2998 colon was above 100 µM; in the experiment on UACC-257 melanoma it was 74 µM and > 10 µM; in the experiment on HOP-62 NSCLC it was 52.1 µM and > 10 µM; with ACHN renal, above 100 µM.

Consider `Nc1c(C(=O)c2cccc(CCCN3CCOCC3)c2)cnn1-c1ccc(F)cc1`, for which the GI50 in the experiment on RPMI-8226 leukemia was above 25 µM; with SK-MEL-5 melanoma, 24.7 µM; in the experiment on NCI-H23 lung it was above 25 µM; in the experiment on T-47D breast, above 23.7 µM; in the experiment with A549 NSCLC it was above 25 µM; in the experiment on HOP-92 NSCLC, 7.01 µM. For the same compound, the GI50 in the experiment on HCC-2998 colon, in the experiment on UACC-257 melanoma, in the experiment on HOP-62 NSCLC and in the experiment with ACHN renal was above 25 µM each time. The TGI with RPMI-8226 leukemia, in the experiment on SK-MEL-5 melanoma, in the experiment on NCI-H23 lung, with T-47D breast, in the experiment on A549 NSCLC and with HOP-92 NSCLC was above 25 µM each time. Moreover, the TGI in the experiment with HCC-2998 colon, in the experiment on UACC-257 melanoma, in the experiment with HOP-62 NSCLC and in the experiment with ACHN renal was above 25 µM throughout.

For the compound `CCOC(=O)c1ccc2[nH]c(-c3ccc(S(=O)(=O)F)cc3)cc(=O)c2c1`, the TGI in the experiment with RPMI-8226 leukemia is above 100 µM; in the experiment with SK-MEL-5 melanoma, above 100 µM; in the experiment with NCI-H23 lung, 47 µM; in the experiment with T-47D breast, above 100 µM; with A549 NSCLC, above 100 µM; with HOP-92 NSCLC, above 100 µM. The TGI in the experiment on HCC-2998 colon is 40 µM; in the experiment with UACC-257 melanoma it was above 100 µM; in the experiment on HOP-62 NSCLC it was above 100 µM; in the experiment with ACHN renal it was 84.2 µM.

`CCCCON(OC(=O)c1ccccc1)C(=O)c1ccccc1`: the GI50 with RPMI-8226 leukemia, with SK-MEL-5 melanoma, in the experiment on NCI-H23 lung, in the experiment on T-47D breast, with A549 NSCLC and in the experiment with HOP-92 NSCLC was above 100 µM each time. Also, the GI50 in the experiment on HCC-2998 colon, in the experiment on UACC-257 melanoma, in the experiment with HOP-62 NSCLC and in the experiment with ACHN renal was above 100 µM throughout. Moreover, the TGI in the experiment with RPMI-8226 leukemia, in the experiment with SK-MEL-5 melanoma, in the experiment on NCI-H23 lung, in the experiment on T-47D breast, with A549 NSCLC and in the experiment with HOP-92 NSCLC was above 100 µM in each case. The TGI in the experiment on HCC-2998 colon, with UACC-257 melanoma, in the experiment on HOP-62 NSCLC and with ACHN renal was above 100 µM throughout.

Take `CC12CCC3C(CCC4Cc5[nH]c6ccccc6c5CC43C)C1CCC2O` (stereo not given): the GI50 in the experiment on RPMI-8226 leukemia is 1.13 µM; in the experiment on SK-MEL-5 melanoma it was 0.75 µM; in the experiment with NCI-H23 lung it was 1.81 µM; with T-47D breast, 2.3 µM; in the experiment with A549 NSCLC it was 2.63 µM; in the experiment with HOP-92 NSCLC, above 100 µM. Also, the GI50 with HCC-2998 colon is 0.633 µM; with UACC-257 melanoma, above 100 µM; in the experiment on HOP-62 NSCLC, 0.348 µM; with ACHN renal, 0.967 µM. The TGI was 4.52 µM in the experiment on RPMI-8226 leukemia; above 100 µM with SK-MEL-5 melanoma; above 24.8 µM in the experiment on NCI-H23 lung; above 100 µM in the experiment on T-47D breast; above 100 µM in the experiment with A549 NSCLC; above 100 µM in the experiment with HOP-92 NSCLC. For the same compound, the TGI is 2.54 µM with HCC-2998 colon, above 100 µM in the experiment with UACC-257 melanoma, 2.57 µM in the experiment with HOP-62 NSCLC and above 100 µM with ACHN renal.

For the compound `Cc1cccc(NC(=O)CCc2ccc(N3C(N)=NC(N)=NC3(C)C)cc2)c1`, the GI50 in the experiment on RPMI-8226 leukemia was 3.17 µM; in the experiment on SK-MEL-5 melanoma, 2.48 µM; with NCI-H23 lung, 6.32 µM; in the experiment on T-47D breast, 38.6 µM; in the experiment on A549 NSCLC it was 0.188 µM; in the experiment on HOP-92 NSCLC it was 26 µM. Moreover, the GI50 with HCC-2998 colon is 3.34 µM; in the experiment with UACC-257 melanoma it was 28.1 µM; in the experiment on HOP-62 NSCLC it was 16.9 µM; in the experiment with ACHN renal, above 100 µM. For the same compound, the TGI is above 100 µM with RPMI-8226 leukemia; above 100 µM with SK-MEL-5 melanoma; above 100 µM with NCI-H23 lung; above 100 µM in the experiment on T-47D breast; above 29 µM with A549 NSCLC; above 100 µM in the experiment on HOP-92 NSCLC. For the same compound, the TGI in the experiment on HCC-2998 colon, in the experiment on UACC-257 melanoma, with HOP-62 NSCLC and with ACHN renal was above 100 µM each time.
